From patent US20260248157A1, “COMPOSITIONS FOR REDUCING METHANE EMISSION” (MOOTRAL INNOVATIONS LIMITED, priority 2022, published 2026)
Read-outs that look alike come from different tables or passages of the source.

Test system: Methanococcus maripaludis
Assay: Inhibition of methane production by Methanococcus maripaludis culture (pressure drop after 24 h)
Format: cell-based
Settings: for Fold increase of Compound X combined with bromoform as compared to Compound X alone: bromoform 0.12 μM; for inhibition at 25 µM: Compound X 25 μM alone; for inhibition at 100 µM: Compound X 100 μM alone
Protocol: For this experiment, bromoform was prepped at 100 mM by adding 8.75 μl bromoform to 991 μl DMSO. This was diluted 10× to generate a 10 mM solution and further diluted to generate 0.12 mM stock solutions. Compound X stock solutions were prepared in DMSO (except for tannic acid, which was diluted in deionized water), to achieve the desired stock solutions required for testing. The experiment was set up by adding 5 ml of M141 medium (https://www.dsmz.de/microorganisms/medium/pdf/DSMZ_Medium141.pdf) to a screw cap Hungate tube followed by the addition of 5 μl Compound X and/or 5 μl bromoform or 5/10 μl DMSO as follows: • Tube 1: DMSO (10 μl) • Tube 2: Bromoform (5 μl, 0.120 mM) (120 nM final)+5 μl DMSO • Tube 3: Compound X (5 μl stock solution)+5 μl DMSO • Tube 4: Bromoform (5 μl 0.120 mM) (120 nM final)+Compound X (5 μl stock solution)
The concentration of Bromoform was fixed at 0.12 μM.
After the addition of the test substances, 500 μl of an overnight M. maripaludis culture was added to each reaction tube. Each tube was gassed with 80% H2/20% CO2 to 240 kPa and incubated at 37° C. for 24 h.
After the 24 h incubation the pressure inside the tube was measured using a manometer. Given that 5 moles of H2/CO2 are consumed to generate 1 mole of CH4 the drop in pressure observed was used to calculate the amount of methane by the control and test reactions from which a percent inhibition was calculated.
Table 1 below summarises the range of concentrations and the fold increase in inhibition of Compound X when tested with bromoform relative to the level of inhibition for Compound X when tested alone.

[1] = Compound X 25 μM + bromoform 0.12 μM, 24 h
[2] = Methanococcus maripaludis, 24 h, read-out: Methane inhibition of Compound X as a sole compound (%)
[3] = Compound X 500 μM + bromoform 0.12 μM, 24 h
[4] = Compound X 1 mM + bromoform 0.12 μM, 24 h
[5] = Compound X 100 μM + bromoform 0.12 μM, 24 h

## O=[N+]([O-])OCCCO [3-Nitrooxypropanol]
Compound X 0.78 μM-1.56 μM (range tested) + bromoform 0.12 μM, 24 h
  Methane inhibition in combination with Bromoform (%): 91.3%
Compound X 0.78 μM-1.56 μM (range tested)
  Fold increase of Compound X combined with bromoform as compared to Compound X alone: 91.3 fold
Methanococcus maripaludis, Compound X 0.78 μM-1.56 μM (range tested) alone, 24 h, read-out: Methane inhibition of Compound X as a sole compound (%)
  inhibition: 1%

## CC(C)=CCc1c(O)cc(O)c2c1O[C@H](c1ccc(O)cc1)CC2=O [8-prenylnaringenin]
Compound X 12.5 μM + bromoform 0.12 μM, 24 h
  Methane inhibition in combination with Bromoform (%): 97.2%
Compound X 12.5 μM
  Fold increase of Compound X combined with bromoform as compared to Compound X alone: 1.27 fold
Methanococcus maripaludis, Compound X 12.5 μM alone, 24 h, read-out: Methane inhibition of Compound X as a sole compound (%)
  inhibition at 12.5 µM: 76.4%

## CC(C)=CCc1cc2c(cc1O)O[C@H](c1ccc(O)cc1)CC2=O [Bavachin]
[1]
  Methane inhibition in combination with Bromoform (%): 57.4%
Compound X 25 μM
  Fold increase of Compound X combined with bromoform as compared to Compound X alone: 57.4 fold
[2]
  inhibition at 25 µM: 1%

## Cc1ccc(C(C)C)cc1O [Carvacrol]
[3]
  Methane inhibition in combination with Bromoform (%): 79.6%
Compound X 500 μM
  Fold increase of Compound X combined with bromoform as compared to Compound X alone: 1.14 fold
[2]
  inhibition at 500 µM: 69.6%

## O=CC=Cc1ccccc1 [Cinnamaldehyde]
[4]
  Methane inhibition in combination with Bromoform (%): 91.7%
Compound X 1 mM
  Fold increase of Compound X combined with bromoform as compared to Compound X alone: 91.7 fold
Methanococcus maripaludis, Compound X 1 mM alone, 24 h, read-out: Methane inhibition of Compound X as a sole compound (%)
  inhibition at 1000 µM: 1%

## CC(C)=CCCC(C)=CC=O [Citral]
[3]
  Methane inhibition in combination with Bromoform (%): 96.7%
Compound X 500 μM
  Fold increase of Compound X combined with bromoform as compared to Compound X alone: 7.29 fold
Methanococcus maripaludis, Compound X 500 μM alone, 24 h, read-out: Methane inhibition of Compound X as a sole compound (%)
  inhibition at 500 µM: 13.3%

## CC(C)=CCC/C(C)=C/Cc1cc(-c2coc3cc(O)ccc3c2=O)ccc1O [Corylifol A]
Compound X 3.125 μM + bromoform 0.12 μM, 24 h
  Methane inhibition in combination with Bromoform (%): 96.1%
Compound X 3.125 μM alone, 24 h
  Methane inhibition of Compound X as a sole compound (%): 1%
Compound X 3.125 μM
  Fold increase of Compound X combined with bromoform as compared to Compound X alone: 96.1 fold

## O=C(O)C(Br)Br [Dibromoacetic acid]
Compound X 200 μM + bromoform 0.12 μM, 24 h
  Methane inhibition in combination with Bromoform (%): 88.1%
Compound X 200 μM
  Fold increase of Compound X combined with bromoform as compared to Compound X alone: 88.1 fold
[2]
  inhibition at 200 µM: 1%

## ClC(Br)Br [Dibromochloromethane]
Compound X 0.195 μM + bromoform 0.12 μM, 24 h
  Methane inhibition in combination with Bromoform (%): 92.2%
Compound X 0.195 μM
  Fold increase of Compound X combined with bromoform as compared to Compound X alone: 92.2 fold
[2]
  inhibition at 0.195 µM: 1%

## CSSC [Dimethyl disulfide]
[4]
  Methane inhibition in combination with Bromoform (%): 43.5%
Compound X 1 mM
  Fold increase of Compound X combined with bromoform as compared to Compound X alone: 43.5 fold
[2]
  inhibition at 1000 µM: 1%

## CC(C)=CCC[C@](C)(O[C@@H]1O[C@H](CO[C@@H]2OC[C@H](O)[C@H](O)[C@H]2O)[C@@H](O)[C@H](O)[C@H]1O)[C@H]1CC[C@]2(C)[C@@H]1[C@H](O)C[C@@H]1[C@@]3(C)CC[C@H](O[C@@H]4O[C@H](CO)[C@@H](O)[C@H](O)[C@H]4O[C@@H]4O[C@H](CO)[C@@H](O)[C@H](O)[C@H]4O)C(C)(C)[C@@H]3CC[C@]12C [Ginsenoside Rb2]
Compound X 20 μM + bromoform 0.12 μM, 24 h
  Methane inhibition in combination with Bromoform (%): 66.9%
Compound X 20 μM alone, 24 h
  Methane inhibition of Compound X as a sole compound (%): 44.7%
Compound X 20 μM
  Fold increase of Compound X combined with bromoform as compared to Compound X alone: 1.42 fold

## CC(C)=CCc1c(O)ccc(C(=O)/C=C/c2ccc(O)cc2)c1O [Isobavachalcone]
Compound X 3.125 μM-6.25 μM (range tested) + bromoform 0.12 μM, 24 h
  Methane inhibition in combination with Bromoform (%): 93.4%
Compound X 3.125 μM-6.25 μM (range tested)
  Fold increase of Compound X combined with bromoform as compared to Compound X alone: 1.12 fold
Methanococcus maripaludis, Compound X 3.125 μM-6.25 μM (range tested) alone, 24 h, read-out: Methane inhibition of Compound X as a sole compound (%)
  inhibition: 83.4%

## CC(C)=CCc1c(-c2ccc(O)cc2O)oc2c3c(cc(O)c2c1=O)OC(C)(C)C=C3 [Morusin]
Compound X 1.25 μM-10 μM (range tested) + bromoform 0.12 μM, 24 h
  Methane inhibition in combination with Bromoform (%): 96.7%
Compound X 1.25 μM-10 μM (range tested)
  Fold increase of Compound X combined with bromoform as compared to Compound X alone: 2.16 fold

## O=c1c(O)c(-c2ccc(O)c(O)c2)oc2cc(O)cc(O)c12 [Quercetin]
Compound X 50 μM-100 μM (range tested) + bromoform 0.12 μM, 24 h
  Methane inhibition in combination with Bromoform (%): 91.2%
Compound X 50 μM-100 μM (range tested)
  Fold increase of Compound X combined with bromoform as compared to Compound X alone: 1.21 fold

## C[C@H]1O[C@@H](O[C@H]2CC[C@@]3(C)[C@@H](CC[C@]4(C)[C@@H]3C=CC3=C5CC(C)(C)CC[C@]5(CO)[C@H](O)C[C@]34C)[C@]2(C)CO)[C@H](O)[C@@H](O[C@@H]2O[C@H](CO)[C@@H](O)[C@H](O)[C@H]2O)[C@H]1O [Saikosaponin b2]
Compound X 10 μM + bromoform 0.12 μM, 24 h
  Methane inhibition in combination with Bromoform (%): 55.6%
Compound X 10 μM alone, 24 h
  Methane inhibition of Compound X as a sole compound (%): 1%
Compound X 10 μM
  Fold increase of Compound X combined with bromoform as compared to Compound X alone: 55.6 fold

## C=C[C@](C)(O)CC[C@@H]1[C@@]2(C)CCCC(C)(C)[C@@H]2CC[C@@]1(C)O [Sclareol]
[1]
  Methane inhibition in combination with Bromoform (%): 61.2%
Compound X 25 μM
  Fold increase of Compound X combined with bromoform as compared to Compound X alone: 56 fold
[2]
  inhibition at 25 µM: 1.1%

## O=C(OC[C@H]1O[C@@H](OC(=O)c2cc(O)c(O)c(OC(=O)c3cc(O)c(O)c(O)c3)c2)[C@H](OC(=O)c2cc(O)c(O)c(OC(=O)c3cc(O)c(O)c(O)c3)c2)[C@@H](OC(=O)c2cc(O)c(O)c(OC(=O)c3cc(O)c(O)c(O)c3)c2)[C@@H]1OC(=O)c1cc(O)c(O)c(OC(=O)c2cc(O)c(O)c(O)c2)c1)c1cc(O)c(O)c(OC(=O)c2cc(O)c(O)c(O)c2)c1 [Tannic acid]
[5]
  Methane inhibition in combination with Bromoform (%): 56.1%
Compound X 100 μM
  Fold increase of Compound X combined with bromoform as compared to Compound X alone: 1.16 fold
[2]
  inhibition at 100 µM: 48.3%

## C[C@H]1[C@H](C)CC[C@]2(C(=O)O)CC[C@]3(C)C(=CC[C@@H]4[C@@]5(C)CC[C@H](O)C(C)(C)[C@@H]5CC[C@]43C)[C@H]12 [Ursolic Acid]
[5]
  Methane inhibition in combination with Bromoform (%): 85.2%
Compound X 100 μM
  Fold increase of Compound X combined with bromoform as compared to Compound X alone: 85.2 fold
[2]
  inhibition at 100 µM: 1%

## COc1cc(O)c(CC=C(C)C)c(O)c1C(=O)/C=C/c1ccc(O)cc1 [Xanthohumol]
Compound X 6.25 μM-12.5 μM (range tested) + bromoform 0.12 μM, 24 h
  Methane inhibition in combination with Bromoform (%): 95.1%
Compound X 6.25 μM-12.5 μM (range tested)
  Fold increase of Compound X combined with bromoform as compared to Compound X alone: 1.5 fold
Methanococcus maripaludis, Compound X 6.25 μM-12.5 μM (range tested) alone, 24 h, read-out: Methane inhibition of Compound X as a sole compound (%)
  inhibition: 63.6%

## Bavachinin
Compound X 12.5 μM-100 μM (range tested) + bromoform 0.12 μM, 24 h
  Methane inhibition in combination with Bromoform (%): 97.2%
Compound X 12.5 μM-100 μM (range tested) alone, 24 h
  Methane inhibition of Compound X as a sole compound (%): 43%
Compound X 12.5 μM-100 μM (range tested)
  Fold increase of Compound X combined with bromoform as compared to Compound X alone: 2.26 fold
